Results reported in US20050182025A1, “Amidinylphenyl compounds and their use as fungicides” (priority 2002, published 2005).

Tests used:
Assay type in all cases: in vivo
Septoria nodorum = test: Test C: preventive spray on wheat seedlings, Septoria glume blotch, disease rating; conditions: wheat seedlings sprayed to run-off, inoculated the following day with Septoria nodorum, 48 h saturated atmosphere then 9 days at 20° C.; test concentration not given
Text: (§1) General protocol for preparing test suspensions: Test compounds were first dissolved in acetone in an amount equal to 3% of the final volume and then suspended at the desired concentration (in ppm) in acetone and purified water (50/50 mix) containing 250 ppm of the surfactant Trem® 014 (polyhydric alcohol esters). The resulting test suspensions were then used in the following tests. Spraying a 200 ppm test suspension to the point of run-off on the test plants was the equivalent of a rate of 500 g/ha. The test suspension was sprayed to the point of run-off on wheat seedlings. The following day the seedlings were inoculated with a spore suspension of Septoria nodorum (the causal agent of Septoria glume blotch) and incubated in a saturated atmosphere at 20° C. for 48 h, and then moved to a growth chamber at 20° C. for 9 days, after which disease ratings were made. Results for Tests A-C are given in Table A. In the table, a rating of 100 indicates 100% disease control and a rating of 0 indicates no disease control (relative to the controls). A dash (-) indicates no test results.

[1] = tested on: Erysiphe graminis f. sp. tritici; test: Test A: preventive spray on wheat seedlings, wheat powdery mildew, disease rating; conditions: wheat seedlings sprayed to run-off, inoculated the following day with Erysiphe graminis f. sp. tritici, rated after 7 days at 20° C.; test concentration not given
Text: as §1, with “spore dust” for “spore suspension”, “of Erysiphe graminis f. sp. tritici,” for “of Septoria nodorum”, “of wheat powdery mildew)” for “of Septoria glume blotch)”, “in” for “in a saturated atmosphere at 20° C. for 48 h, and then moved to”, “for 7” for “for 9”

Puccinia recondita = test: Test B: preventive spray on wheat seedlings, wheat leaf rust, disease rating; conditions: wheat seedlings sprayed to run-off, inoculated the following day with Puccinia recondita, 24 h saturated atmosphere then 6 days at 20° C.; test concentration not given
Text: as §1, with “Puccinia recondita” for “Septoria nodorum”, “wheat leaf rust)” for “Septoria glume blotch)”, “24” for “48”, “6” for “9”

Compound | Test C disease control rating (100 = 100% disease control, 0 = no disease control relative to the controls) (Septoria nodorum) [%] | Test A disease control rating (100 = 100% disease control, 0 = no disease control relative to the controls) [1] [%] | Test B disease control rating (100 = 100% disease control, 0 = no disease control relative to the controls) (Puccinia recondita) [%]
CCCCC(CCCC)Oc1cc(C)c(N=CN(C)C)cc1C [Compound 28, N′-[4-[(1-Butylpentyl)oxy]-2,5-dimethylphenyl]-N,N-dimethylmethanimidamide] | 0 | 0 | 97
Cc1cc(OCCC[Si](C)(C)C)c(C(C)C)cc1NC(=S)N(C)C(C)C [compound 92] | 100 | 100 | 100
Cc1cc(OCC(=O)C(C)(C)C)c(C)cc1N=CN(C)C [Compound 4] | 0 | 0 | 92
Cc1cc(OC(CCC(C)C)CCC(C)C)c(C)cc1N=CN(C)C [Compound 35] | 100 | 95 | 100
CCN(C)C(=S)Nc1cc(C)c(OCCCC(C)(C)C)cc1C [compound 194] | 100 | 99 | 100
CCN(CC)C(=S)Nc1cc(Cl)c(OCCC[Si](C)(C)C)cc1Cl [compound 185] | 63 | 99 | 98
CC(C)CCCOc1cc(Cl)c(NC(=S)N(C)C)cc1Cl [compound 123] | 100 | 54 | 46
CCN(CC)C(=S)Nc1cc(Cl)c(OCCC[Si](C)(C)C)cc1C [compound 170] | 99 | 99 | 100
CCCCN(C)C=Nc1cc(F)c(OCCC[Si](C)(C)C)cc1C [compound 62] | 100 | 100 | 100
Cc1cc(OCCCC(C)(C)C)c(Cl)cc1N=CN(C)C [compound 175] | 100 | 97 | 100
CC(=Nc1cc(Cl)c(OCCCC(C)C)cc1C)N(C)C [compound 111] | 100 | 99 | 100
CCCC(CCC(C)C)Oc1cc(C)c(N=CN(C)C)cc1C (stereo not drawn) [Compound 33] | 0 | 95 | 100
CCCCC(C)Oc1cc(C)c(N=CN(C)C)cc1C (stereo not drawn) [Compound 18] | 98 | 98 | 100
CC[Si](C)(CC)CCCOc1cc(C)c(N=CN(C)C)cc1C [Compound 53] | 99 | 100 | 100
CCN(CC)C(=S)Nc1cc(C)c(OCCC[Si](C)(C)C)cc1C [compound 163] | 73 | 32 | 100
Cc1cc(OCCCCCCl)c(C)cc1N=CN(C)C [Compound 17] | 100 | 92 | 100
CCCCCCCCCCOc1cc(C)c(N=CN(C)C)cc1C [Compound 24] | 0 | 86 | 23
CC(C)=CCCC(C)=CCCC(C)=CCOc1cc(C)c(N=CN(C)C)cc1C [Compound 3] | 0 | 0 | 87
Cc1cc(OCCC[Si](C)(C)C)c(Cl)cc1N=CN1CCCC1 [Compound 95] | 100 | 100 | 100
CCCCN(C)C=Nc1cc(C(C)C)c(OCCC[Si](C)(C)C)cc1C [compound 73] | 66 | 99 | 61
CCN(CC)C(=S)Nc1cc(C)c(OCCCC(C)C)cc1C [compound 108] | 96 | 87 | 89
CCN(CC)C(=S)Nc1cc(Cl)c(OCCCC(C)(C)C)cc1Cl [compound 188] | 90 | 100 | 79
Cc1cc(OCCC(C)(C)C)c(C)cc1N=CN(C)C [Compound 12] | 80 | 97 | 100
CCN(C)C=Nc1cc(C)c(OCCC[Si](C)(C)C)c(Cl)c1C [compound 140] | 100 | 100 | 100
CCCCC(CCC)Sc1cc(C)c(N=C(C)N(C)C)cc1C (stereo not drawn) [compound 142] | 53 | 0 | 0
CCN(C)C=Nc1cc(C(C)C)c(OCCC[Si](C)(C)C)cc1C [compound 76] | 100 | 100 | 100
CCN(C)C(=Nc1cc(Cl)c(OCCC[Si](C)(C)C)cc1C)C(=O)OC [compound 129] | 67 | 100 | 100
